Here are results for one molecule from patent US20260258502A1, “METHODS AND REAGENTS FOR DETECTION OF CIRCULAR DNA MOLECULES IN BIOLOGICAL SAMPLES” (priority 2022, published 2026).

The test system of this data set is Human TK6 cells. Nature of the data set: Duplex sequencing (DS) of human TK6 cells treated with genotoxic compounds: putative DNA circle frequency and mutation frequency. The conditions noted are these: detected by DS, dose groups vs untreated group, proxy for clastogenicity. Format: cell-based. On the procedure: To assess whether DNA circle frequency is a proxy for clastogenicity, DS data for various genotoxic agents were re-analyzed. ENU is a well-known potent mutagen and clastogen.
Human TK6 cells were treated with different potentially genotoxic compounds. DS libraries were prepared with 500 ng of DNA input. […] FIG. 10A-10B show the frequency of putative circles, calculated as frequency=(#circles detected)/(#duplex bases sequenced).

In the case of `CCN(N=O)C(N)=O` [ENU], the “frequency of putative DNA circles per duplex base pair (#circles detected)/(#duplex bases sequenced)” value is “increased candidate DNA circle frequency in a dose-dependent manner, reaching statistical significance in the highest dose group”.
